# Source: patent US20190110473A1, “SYNERGISTIC WEED CONTROL FROM APPLICATIONS OF PYRIDINE CARBOXYLIC ACID HERBICIDES AND PHOTOSYSTEM II INHIBITORS” (Dow AgroSciences LLC, priority 2017, published 2019)
# Tests used:
# Test in all cases: Greenhouse herbicidal activity, visual weed control
# Assay type in all cases: in vivo
# Conditions in all cases: 20-22 d
# [1] = test system: Persian speedwell (Veronica persica; VERPE)
# Method: (§1) Seeds of the desired test plant species were planted in Sun Gro MetroMix® 306 planting mixture, which typically has a pH of 6.0 to 6.8 and an organic matter content of about 30 percent, in plastic pots with a surface area of 103.2 square centimeters (cm^2). When required to ensure good germination and healthy plants, a fungicide treatment and/or other chemical or physical treatment was applied. The plants were grown for 7-36 days (d) in a greenhouse with an approximate 14 hour (h) photoperiod which was maintained at about 18° C. during the day and 17° C. during the night. Nutrients and water were added on a regular basis and supplemental lighting was provided with overhead metal halide 1000-Watt lamps as necessary. The plants were employed for testing when they reached the second or third true leaf stage.
# (§2) An aliquot of formulated Compound 1 (100 grams acid equivalent per liter (g ae/L); emusifiable concentrate (EC)) was placed in a 25 mL glass vial and diluted in a volume of 1.25% (volume per volume (v/v)) aqueous methylated soybean seed oil to obtain a stock solution. The concentrated stock solutions were diluted with an aqueous mixture of 1.25% v/v of aqueous methylated soybean seed oil to provide the appropriate application rates. Compound requirements are based upon a 12 mL application volume at a rate of 187 liters per hectare (L/ha). Compositions of Compound 1 and the photosystem II inhibitor herbicides (propanil, amicarbazone, pyridafol, desmedipham, terbacil, or bromacil) were prepared by adding aliquot or weighted amount of the photosystem II inhibitor into the diluted solutions of Compound 1. The compositions of Compound 1 and the photosystem II inhibitor herbicides were applied to the plant material with an overhead Mandel track sprayer equipped with 8002E nozzles calibrated to deliver 187 L/ha over an application area of 0.503 square meters (m^2) at a spray height of 18 inches (43 centimeters (cm)) above average plant canopy. Control plants were sprayed in the same manner with the solvent blank.
# (§3) The efficacy of each of these herbicidal compositions was then evaluated against rapeseed (Brassica napus; BRSNN), shepherd's purse (Capsella bursa-pastoris; CAPBP), common chickweed (Stellaria media; STEME), scentless mayweed (Matricaria inodora; MATIN), corn chamomile (Anthemis arvensis; ANTAR), wild chamomile (Matricaria chamomilla; MATCH), Persian speedwell (Veronica persica; VERPE), ivyleaf speedwell (Veronica hederifolia; VERHE), corn poppy (Papaver rhoeas; PAPRH), kochia (Kochia scoparia; KCHSC), and Canada thistle (Cirsium arvense; CIRAR). The treated plants and control plants were placed in a greenhouse as described above and watered by subirrigation to prevent washoff of the test compounds. After 20-22 d, the condition of the test plants as compared with that of the control plants was determined visually and scored on a scale of 0 to 100 percent where 0 corresponds to no injury and 100 corresponds to complete kill. […]
# (§4) The values reported are means.
# [2] = test system: ivyleaf speedwell (Veronica hederifolia; VERHE)
# Method: as §1, §2, §3, §4
# [3] = test system: scentless mayweed (Matricaria inodora; MATIN)
# Method: as §1, §2, §3, §4
# [4] = test system: common chickweed (Stellaria media; STEME)
# Method: as §1, §2, §3, §4
# [5] = test system: wild chamomile (Matricaria chamomilla; MATCH)
# Method: as §1, §2, §3, §4
# [6] = test system: kochia (Kochia scoparia; KCHSC)
# Method: as §1, §2, §3, §4
# [7] = test system: corn poppy (Papaver rhoeas; PAPRH)
# Method: as §1, §2, §3, §4
# [8] = test system: shepherd's purse (Capsella bursa-pastoris; CAPBP)
# Method: as §1, §2, §3, §4
# [9] = test system: Canada thistle (Cirsium arvense; CIRAR)
# Method: as §1, §2, §3, §4
# [10] = test system: rapeseed (Brassica napus; BRSNN)
# Method: as §1, §2, §3, §4
# [11] = test system: corn chamomile (Anthemis arvensis; ANTAR)
# Method: as §1, §2, §3, §4
compound,measurement,setting,value
Nc1c(F)c(-c2ccc3cc[nH]c3c2F)nc(C(=O)O)c1Cl [Compound 1],Obs (% visual control),[1]; Compound 1 5 g/ha alone,70%
same,Obs (% visual control),[1]; Compound 1 10 g/ha alone,85%
same,Obs (% visual control),[2]; Compound 1 5 g/ha alone,75%
same,Obs (% visual control),[2]; Compound 1 10 g/ha alone,75%
same,Obs (% visual control),[3]; Compound 1 5 g/ha alone,10%
same,Obs (% visual control),[3]; Compound 1 10 g/ha alone,60%
same,Obs (% visual control),[4]; Compound 1 5 g/ha alone,65%
same,Obs (% visual control),[4]; Compound 1 10 g/ha alone,70%
same,Obs (% visual control),[5]; Compound 1 5 g/ha alone,10%
same,Obs (% visual control),[5]; Compound 1 10 g/ha alone,10%
same,Obs (% visual control),[6]; Compound 1 5 g/ha alone,50%
same,Obs (% visual control),[6]; Compound 1 10 g/ha alone,55%
same,Obs (% visual control),"[7]; PAPRH (R-PAPRH in Tables 1 and 6), Compound 1 5 g/ha alone",75%
same,Obs (% visual control),"[7]; PAPRH (R-PAPRH in Tables 1 and 6), Compound 1 10 g/ha alone",80%
same,Obs (% visual control),[8]; Compound 1 5 g/ha alone,65%
same,Obs (% visual control),[8]; Compound 1 10 g/ha alone,70%
same,Obs (% visual control),[9]; Compound 1 5 g/ha alone,10%
same,Obs (% visual control),[9]; Compound 1 10 g/ha alone,30%
same,Obs (% visual control),[10]; Compound 1 5 g/ha alone,40%
same,Obs (% visual control),[10]; Compound 1 10 g/ha alone,50%
same,Obs (% visual control),[11]; Compound 1 5 g/ha alone,10%
same,Obs (% visual control),[11]; Compound 1 10 g/ha alone,40%
"CCC(=O)Nc1ccc(Cl)c(Cl)c1 [Propanil, propanil]",Obs (% visual control),[1]; Propanil 840 g/ha alone,10%
same,Obs (% visual control),[2]; Propanil 840 g/ha alone,10%
same,Obs (% visual control),[3]; Propanil 840 g/ha alone,0%
same,Obs (% visual control),[4]; Propanil 840 g/ha alone,0%
same,Obs (% visual control),[5]; Propanil 840 g/ha alone,10%
same,Obs (% visual control),[6]; Propanil 840 g/ha alone,10%
same,Obs (% visual control),"[7]; R-PAPRH, Propanil 840 g/ha alone",20%
same,Obs (% visual control),[8]; Propanil 840 g/ha alone,50%
same,Obs (% visual control),[9]; Propanil 840 g/ha alone,10%
same,Obs (% visual control),[10]; Propanil 840 g/ha alone,10%
same,Obs (% visual control),[11]; Propanil 840 g/ha alone,50%
"Cc1[nH]c(=O)n(C(C)(C)C)c(=O)c1Cl [Terbacil, terbacil]",Obs (% visual control),[1]; Terbacil 113 g/ha alone,30%
same,Obs (% visual control),[2]; Terbacil 113 g/ha alone,60%
same,Obs (% visual control),[3]; Terbacil 113 g/ha alone,10%
same,Obs (% visual control),[4]; Terbacil 113 g/ha alone,10%
same,Obs (% visual control),[5]; Terbacil 113 g/ha alone,60%
same,Obs (% visual control),[6]; Terbacil 113 g/ha alone,0%
same,Obs (% visual control),"[7]; PAPRH, Terbacil 113 g/ha alone",10%
same,Obs (% visual control),[8]; Terbacil 113 g/ha alone,30%
same,Obs (% visual control),[9]; Terbacil 113 g/ha alone,30%
same,Obs (% visual control),[10]; Terbacil 113 g/ha alone,10%
same,Obs (% visual control),[11]; Terbacil 113 g/ha alone,0%
"CCC(C)n1c(=O)[nH]c(C)c(Br)c1=O (stereo not shown) [Bromacil, bromacil]",Obs (% visual control),[1]; Bromacil 900 g/ha alone,10%
same,Obs (% visual control),[2]; Bromacil 900 g/ha alone,30%
same,Obs (% visual control),[3]; Bromacil 900 g/ha alone,100%
same,Obs (% visual control),[4]; Bromacil 900 g/ha alone,100%
same,Obs (% visual control),[5]; Bromacil 900 g/ha alone,100%
same,Obs (% visual control),[6]; Bromacil 900 g/ha alone,97%
same,Obs (% visual control),"[7]; R-PAPRH, Bromacil 900 g/ha alone",100%
same,Obs (% visual control),[8]; Bromacil 900 g/ha alone,65%
same,Obs (% visual control),[9]; Bromacil 900 g/ha alone,10%
same,Obs (% visual control),[10]; Bromacil 900 g/ha alone,65%
same,Obs (% visual control),[11]; Bromacil 900 g/ha alone,30%
"CC(C)c1nn(C(=O)NC(C)(C)C)c(=O)n1N [Amicarbazone, amicarbazone]",Obs (% visual control),[1]; Amicarbazone 300 g/ha alone,20%
same,Obs (% visual control),[2]; Amicarbazone 300 g/ha alone,50%
same,Obs (% visual control),[3]; Amicarbazone 300 g/ha alone,30%
same,Obs (% visual control),[4]; Amicarbazone 300 g/ha alone,20%
same,Obs (% visual control),[5]; Amicarbazone 300 g/ha alone,95%
same,Obs (% visual control),[6]; Amicarbazone 300 g/ha alone,50%
same,Obs (% visual control),"[7]; PAPRH, Amicarbazone 300 g/ha alone",30%
same,Obs (% visual control),[8]; Amicarbazone 300 g/ha alone,50%
same,Obs (% visual control),[9]; Amicarbazone 300 g/ha alone,50%
same,Obs (% visual control),[10]; Amicarbazone 300 g/ha alone,60%
same,Obs (% visual control),[11]; Amicarbazone 300 g/ha alone,30%
"O=c1cc(Cl)[nH]nc1-c1ccccc1 [Pyridafol, pyridafol]",Obs (% visual control),[1]; Pyridafol 195 g/ha alone,0%
same,Obs (% visual control),[2]; Pyridafol 195 g/ha alone,0%
same,Obs (% visual control),[3]; Pyridafol 195 g/ha alone,10%
same,Obs (% visual control),[4]; Pyridafol 195 g/ha alone,0%
same,Obs (% visual control),[5]; Pyridafol 195 g/ha alone,0%
same,Obs (% visual control),[6]; Pyridafol 195 g/ha alone,0%
same,Obs (% visual control),"[7]; PAPRH, Pyridafol 195 g/ha alone",0%
same,Obs (% visual control),[8]; Pyridafol 195 g/ha alone,0%
same,Obs (% visual control),[9]; Pyridafol 195 g/ha alone,0%
same,Obs (% visual control),[10]; Pyridafol 195 g/ha alone,5%
same,Obs (% visual control),[11]; Pyridafol 195 g/ha alone,0%
"CCOC(=O)Nc1cccc(OC(=O)Nc2ccccc2)c1 [Desmedipham, desmedipham]",Obs (% visual control),[1]; Desmedipham 163 g/ha alone,10%
same,Obs (% visual control),[2]; Desmedipham 163 g/ha alone,10%
same,Obs (% visual control),[3]; Desmedipham 163 g/ha alone,10%
same,Obs (% visual control),[4]; Desmedipham 163 g/ha alone,0%
same,Obs (% visual control),[5]; Desmedipham 163 g/ha alone,10%
same,Obs (% visual control),[6]; Desmedipham 163 g/ha alone,0%
same,Obs (% visual control),"[7]; PAPRH, Desmedipham 163 g/ha alone",0%
same,Obs (% visual control),[8]; Desmedipham 163 g/ha alone,0%
same,Obs (% visual control),[9]; Desmedipham 163 g/ha alone,0%
same,Obs (% visual control),[10]; Desmedipham 163 g/ha alone,15%
same,Obs (% visual control),[11]; Desmedipham 163 g/ha alone,10%
